Data as given in publication PMC11726183, “Design, synthesis, in vitro, and in silico studies of novel isatin-hybrid hydrazones as potential triple-negative breast cancer agents” (RSC Advances, 2025).
Read-outs that look alike come from different tables or passages of the source.

Experiments:
Format in all cases: cell-based, human
[1] = tested on: MDA-MB-231 breast cancer cell line; assay: MTT cytotoxicity assay on breast cancer cell line MDA-MB-231; details: for IC50: read-out: IC50 values, breast cancer cell line MDA-MB-231; for % viability, breast cancer cell line MDA-MB-231: concentration for the value not given (6.5-50 μM tested)
Text: (§1) Breast cancer cells MDA-MB-231 were used to investigate the synthesized compounds' anticancer properties. Because these cancer cells lack estrogen receptors (ER), progesterone receptors (PR), and human epidermal growth factor receptor 2 (HER2), they are also known as triple-negative breast cancer cells (TNBC).[44] These receptors are generally utilized as target proteins in cancer treatment and are often overexpressed in cancer cells. […] At the same time human normal breast epithelial cell line MCF-10A was kept as a control in the experiment to check out whether the cytotoxic effects of the compounds were selective for malignant cells in comparison to non-malignant cells. Variable concentrations (6.5 μM, 12.5 μM, 25 μM, and 50 μM) of the synthesized compounds 5–25 were used to investigate the prohibition of growth in the human breast cancer cell line MDA-MB-231 and the non-tumorigenic MCF-10. The MTT [3-(4,5-dimethylthiazol-2-yl)-2,5-diphenyltetrazolium bromide] assay was used to determine the reduction in cancer cell viability induced by cytotoxic agents. […] IBM SPSS Statistics 26 software was used for the analysis of dose–response and computation of IC50 values.
(§2) In vitro, cytotoxicity assay for the synthetic derivatives was determined by performing an MTT (yellow tetrazolium salt, 3-(4,5-dimethylthizol-2-yl)-2,5-diphenyl tetrazolium bromide) assay by using an aggressive breast cancer cell line MDA-MB-231.[51] Human breast normal cell line MCF-10A was kept as a control in the study.[52,53] Cells were cultured in DMEM augmented with 10% FBS and 1% antibiotics (100 U per mL penicillin). The cells were sowed in a 96-well plate at a 1.0 × 10^4 cells per well density and incubated for 24 h at 37 °C in 5% CO2. The medium was discarded, and both the cell lines were treated with different concentrations (6.5 μM, 12.5 μM, 25 μM, and 50 μM) of synthetic hydrazone derivatives.[54] After 48 h of incubation 20 μL of MTT solution (5 mg mL^−1) was pipetted into each well and incubated for another 4 h.[55] Later the medium was discarded, and the precipitate of formazan was dissolved in DMSO. The absorbance of the mixtures was calculated using a microplate reader at 570 nm. Triplicates were used for performing all experiments and the cytotoxicity was expressed as a percentage of cell viability compared to untreated control cells.[54]1 [drawing 22]

[2] = MTT cytotoxicity assay on normal breast epithelial cell line MCF-10A (control); details: human, MTT, 48 h, concentration for the value not given (6.5-50 μM tested)
Text: as §1, §2

[3] = tested on: normal cell line MCF-10; assay: as above; details: for IC50: read-out: IC50 values, normal cell line MCF-10
Text: as §1, §2

[4] = Homo sapiens, MDA-MB-231, MTT, 48 h
[5] = MCF-10A normal breast epithelial cells
[6] = Homo sapiens, MCF10, MTT, 48 h, unit from text (highest concentration 50 μM)

With `O=C(N/N=C1/C(=O)N(Cc2ccccc2)c2ccccc21)c1cccc(Cl)c1` [Compound 5, (E)-N′-(1-Benzyl-2-oxoindolin-3-ylidene)-3-chlorobenzohydrazide] the IC50 ([1]; Homo sapiens, MDA-MB-231, 48 h) was 26.4 ± 0.8 µM, the “% viability, breast cancer cell line MDA-MB-231” value ([1]; MTT, 48 h) was 27.11% and the viability at 48 h [2] was 80.1%. The IC50 ([3]; Homo sapiens, MCF10, 48 h) was > 50 µM.
In the case of `O=C(N/N=C1/C(=O)N(Cc2ccccc2)c2ccccc21)c1ccc(Br)cc1` [Compound 14, (E)-N′-(1-Benzyl-2-oxoindolin-3-ylidene)-4-bromobenzohydrazide], the IC50 ([1]; Homo sapiens, MDA-MB-231, 48 h) is reported as 36.8 ± 0.7 µM, the “% viability, breast cancer cell line MDA-MB-231” value ([1]; MTT, 48 h) is reported as 42.11% and the viability at 48 h [2] is reported as 85.4%. The IC50 ([3]; Homo sapiens, MCF10, 48 h) was > 50 µM.
With `O=C(Cc1ccc(F)cc1F)N/N=C1/C(=O)N(Cc2ccccc2)c2ccccc21` [Compound 21, (E)-N′-(1-Benzyl-2-oxoindolin-3-ylidene)-2-(2,4-difluorophenyl)acetohydrazide] the IC50 ([1]; Homo sapiens, MDA-MB-231, 48 h) was 22.2 ± 0.7 µM, the “% viability, breast cancer cell line MDA-MB-231” value ([1]; MTT, 48 h) was 22.46% and the viability at 48 h [2] was 85.7%. For the same compound, the IC50 ([3]; Homo sapiens, MCF10, 48 h) was > 50 µM.
In the case of `O=C(N/N=C1/C(=O)N(Cc2ccccc2)c2ccccc21)c1ccc(C(F)(F)F)cc1` [Compound 17, (E)-N′-(1-Benzyl-2-oxoindolin-3-ylidene)-4-(trifluoromethyl)benzohydrazide], the IC50 ([1]; Homo sapiens, MDA-MB-231, 48 h) is reported as 37.5 ± 0.9 µM, the “% viability, breast cancer cell line MDA-MB-231” value ([1]; MTT, 48 h) is reported as 38.09% and the viability at 48 h [2] is reported as 77.6%. The IC50 ([3]; Homo sapiens, MCF10, 48 h) was > 50 µM.
For `Cc1ccc(C(=O)N/N=C2/C(=O)N(Cc3ccccc3)c3ccccc32)cc1F` [Compound 9, (E)-N′-(1-Benzyl-2-oxoindolin-3-ylidene)-3-fluoro-4-methylbenzohydrazide], the IC50 ([1]; Homo sapiens, MDA-MB-231, 48 h) was 27.4 ± 0.5 µM, the “% viability, breast cancer cell line MDA-MB-231” value ([1]; MTT, 48 h) was 25.61% and the viability at 48 h [2] was 76.2%. The IC50 ([3]; Homo sapiens, MCF10, 48 h) was > 50 µM.
With `O=C(N/N=C1/C(=O)N(Cc2ccccc2)c2ccccc21)c1ccccc1Br` [Compound 22, (E)-N′-(1-Benzyl-2-oxoindolin-3-ylidene)-2-bromobenzohydrazide] the IC50 ([1]; Homo sapiens, MDA-MB-231, 48 h) was 26.1 ± 0.7 µM, the “% viability, breast cancer cell line MDA-MB-231” value ([1]; MTT, 48 h) was 21.28% and the viability at 48 h [2] was 78.4%. The IC50 ([3]; Homo sapiens, MCF10, 48 h) was > 50 µM.
For `O=C(N/N=C1/C(=O)N(Cc2ccccc2)c2ccccc21)c1ccccc1Cl` [Compound 20, (E)-N′-(1-Benzyl-2-oxoindolin-3-ylidene)-2-chlorobenzohydrazide], the IC50 ([1]; Homo sapiens, MDA-MB-231, 48 h) was 28.8 ± 0.6 µM, the “% viability, breast cancer cell line MDA-MB-231” value ([1]; MTT, 48 h) was 34.56% and the viability at 48 h [2] was 77.6%. The IC50 ([3]; Homo sapiens, MCF10, 48 h) was > 50 µM.
For `O=C(Cc1ccccc1C(F)(F)F)N/N=C1/C(=O)N(Cc2ccccc2)c2ccccc21` [Compound 10, (E)-N′-(1-Benzyl-2-oxoindolin-3-ylidene)-2-(2-(trifluoromethyl)phenyl)acetohydrazide], the IC50 [1, 4] was 25.4 ± 0.8 µM, the “% viability, breast cancer cell line MDA-MB-231” value ([1]; MTT, 48 h) was 29.12% and the viability at 48 h [2, 5] was 84.9%. The IC50 [3, 6] was > 50 µM.
In the case of `O=C(Cc1ccccc1)N/N=C1/C(=O)N(Cc2ccccc2)c2ccccc21` [Compound 24, (E)-N′-(1-Benzyl-2-oxoindolin-3-ylidene)-2-phenylacetohydrazide], the IC50 [1, 4] is reported as 24.5 ± 0.8 µM, the “% viability, breast cancer cell line MDA-MB-231” value ([1]; MTT, 48 h) is reported as 29.54% and the viability at 48 h [2, 5] is reported as 78.5%. The IC50 [3, 6] was > 50 µM.
For `O=C(N/N=C1/C(=O)N(Cc2ccccc2)c2ccccc21)c1cc2ccccc2cc1O` [Compound 25, (E)-N′-(1-Benzyl-2-oxoindolin-3-ylidene)-3-hydroxy-2-naphthohydrazide], the IC50 ([1]; Homo sapiens, MDA-MB-231, 48 h) was 30.6 ± 0.4 µM, the “% viability, breast cancer cell line MDA-MB-231” value ([1]; MTT, 48 h) was 31.67% and the viability at 48 h [2] was 76.3%. For the same compound, the IC50 ([3]; Homo sapiens, MCF10, 48 h) was > 50 µM.
With `O=C(Cc1ccc(C(F)(F)F)cc1)N/N=C1/C(=O)N(Cc2ccccc2)c2ccccc21` [Compound 12, (E)-N′-(1-Benzyl-2-oxoindolin-3-ylidene)-2-(4-(trifluoromethyl)phenyl)acetohydrazide] the IC50 [1, 4] was 31.2 ± 0.9 µM, the “% viability, breast cancer cell line MDA-MB-231” value ([1]; MTT, 48 h) was 36.52% and the viability at 48 h [2, 5] was 80.4%. For the same compound, the IC50 [3, 6] was > 50 µM.
With “(E)-1-Benzyl-3-((2-(4-nitrophenyl)-2-oxoethyl)imino)indolin-2-one [Compound 23]” the “% viability, breast cancer cell line MDA-MB-231” value ([1]; MTT, 48 h) was 17.37%, the IC50 ([1]; MTT, 48 h) was 15.8 ± 0.6 µM and the “% viability, normal cell line MCF-10” value ([3]; MTT, 48 h, concentration for the value not given (6.5-50 μM tested)) was 75.23%. For the same compound, the IC50 ([3]; MTT, 48 h, unit from text (highest concentration 50 μM)) was > 50 µM.
In the case of `Cc1ccc(F)c(C(=O)N/N=C2/C(=O)N(Cc3ccccc3)c3ccccc32)c1` [Compound 7, (E)-N′-(1-Benzyl-2-oxoindolin-3-ylidene)-2-fluoro-5-methylbenzohydrazide], the IC50 ([1]; Homo sapiens, MDA-MB-231, 48 h) is reported as 33.6 ± 0.5 µM, the “% viability, breast cancer cell line MDA-MB-231” value ([1]; MTT, 48 h) is reported as 30.01% and the viability at 48 h [2] is reported as 79.3%. For the same compound, the IC50 ([3]; Homo sapiens, MCF10, 48 h) was > 50 µM.
For `O=C(N/N=C1/C(=O)N(Cc2ccccc2)c2ccccc21)c1cccc2ccccc12` [Compound 13, (E)-N′-(1-Benzyl-2-oxoindolin-3-ylidene)-1-naphthohydrazide], the IC50 ([1]; Homo sapiens, MDA-MB-231, 48 h) was 28.6 ± 0.5 µM, the “% viability, breast cancer cell line MDA-MB-231” value ([1]; MTT, 48 h) was 29.01% and the viability at 48 h [2] was 79.1%. For the same compound, the IC50 ([3]; Homo sapiens, MCF10, 48 h) was > 50 µM.
In the case of `O=C(N/N=C1/C(=O)N(Cc2ccccc2)c2ccccc21)c1ccco1` [Compound 16, (E)-N′-(1-Benzyl-2-oxoindolin-3-ylidene)furan-2-carbohydrazide], the IC50 ([1]; Homo sapiens, MDA-MB-231, 48 h) is reported as 29.2 ± 0.7 µM, the “% viability, breast cancer cell line MDA-MB-231” value ([1]; MTT, 48 h) is reported as 29.40% and the viability at 48 h [2] is reported as 79.9%. For the same compound, the IC50 ([3]; Homo sapiens, MCF10, 48 h) was > 50 µM.
In the case of `Cc1ccccc1C(=O)N/N=C1/C(=O)N(Cc2ccccc2)c2ccccc21` [Compound 15, (E)-N′-(1-Benzyl-2-oxoindolin-3-ylidene)-2-methylbenzohydrazide], the IC50 ([1]; Homo sapiens, MDA-MB-231, 48 h) is reported as 24.4 ± 0.6 µM, the “% viability, breast cancer cell line MDA-MB-231” value ([1]; MTT, 48 h) is reported as 23.77% and the viability at 48 h [2] is reported as 84.3%. For the same compound, the IC50 ([3]; Homo sapiens, MCF10, 48 h) was > 50 µM.
In the case of `O=C(N/N=C1/C(=O)N(Cc2ccccc2)c2ccccc21)c1ccccc1` [Compound 11, (E)-N′-(1-Benzyl-2-oxoindolin-3-ylidene)benzohydrazide], the IC50 ([1]; Homo sapiens, MDA-MB-231, 48 h) is reported as 28.4 ± 0.5 µM, the “% viability, breast cancer cell line MDA-MB-231” value ([1]; MTT, 48 h) is reported as 25.41% and the viability at 48 h [2] is reported as 82%. The IC50 ([3]; Homo sapiens, MCF10, 48 h) was > 50 µM.
For `COc1ccc(C(=O)N/N=C2/C(=O)N(Cc3ccccc3)c3ccccc32)cc1` [Compound 6, (E)-N′-(1-Benzyl-2-oxoindolin-3-ylidene)-4-methoxybenzohydrazide], the IC50 ([1]; Homo sapiens, MDA-MB-231, 48 h) was 25.8 ± 0.4 µM, the “% viability, breast cancer cell line MDA-MB-231” value ([1]; MTT, 48 h) was 26.13% and the viability at 48 h [2] was 81.1%. For the same compound, the IC50 ([3]; Homo sapiens, MCF10, 48 h) was > 50 µM.
For `O=C(Cc1ccccc1Nc1c(Cl)cccc1Cl)N/N=C1/C(=O)N(Cc2ccccc2)c2ccccc21` [Compound 19, (E)-N′-(1-Benzyl-2-oxoindolin-3-ylidene)-2-(2-((2,6-dichlorophenyl)amino)phenyl) acetohydrazide], the IC50 [1, 4] was 29.2 ± 0.4 µM, the “% viability, breast cancer cell line MDA-MB-231” value ([1]; MTT, 48 h) was 37.23% and the viability at 48 h [2, 5] was 80.3%. The IC50 [3, 6] was > 50 µM.
In the case of `O=C(N/N=C1/C(=O)N(Cc2ccccc2)c2ccccc21)c1ccncc1` [Compound 8, (E)-N′-(1-Benzyl-2-oxoindolin-3-ylidene)isonicotinohydrazide], the IC50 ([1]; Homo sapiens, MDA-MB-231, 48 h) is reported as 16.8 ± 0.9 µM, the “% viability, breast cancer cell line MDA-MB-231” value ([1]; MTT, 48 h) is reported as 19.13% and the viability at 48 h [2] is reported as 78.1%. The IC50 ([3]; Homo sapiens, MCF10, 48 h) was > 50 µM.
In the case of `O=C(N/N=C1\C(=O)N(Cc2ccccc2)c2ccccc21)c1cccnc1` [Compound 18, (Z)-N′-(1-Benzyl-2-oxoindolin-3-ylidene)nicotinohydrazide], the IC50 ([1]; Homo sapiens, MDA-MB-231, 48 h) is reported as 34.6 ± 0.4 µM, the “% viability, breast cancer cell line MDA-MB-231” value ([1]; MTT, 48 h) is reported as 41.19% and the viability at 48 h [2] is reported as 85.1%. The IC50 ([3]; Homo sapiens, MCF10, 48 h) was > 50 µM.
